Measurements from patent publication US20250367189A1, “2-BROMO-LYSERGIC ACID DI[…] SUBSTANCE ABUSE” (Ceruvia Lifesciences LLC, priority 2020, published 2025).

Tests used:
[1] = in vivo; cited from earlier work
rats [2] = conditions: cited from earlier work
humans = conditions: cited from earlier work
male fosTRAP2×Ai14 mice = experiment: Two-bottle choice (water vs 20% ethanol) drinking after ethanol exposure; assay type: in vivo; conditions: for ethanol preference, within-group mean difference week 1 vs. week 3: follow-up week 1 (after dose 1) vs week 3 (after dose 2); for ethanol consumption, mean difference Saline vs. treatment: planned contrast across 4 follow-up weeks, LSD 50 ug/kg or BOL-148 3.0 mg/kg intraperitoneal; for effect of treatment on alcohol preference (summary) / additive effect of a second dose on alcohol preference: summary in words; for additive effect of a second dose on alcohol preference: two doses, weeks 1 and 3
From the text: Twenty-five adult (12-30-week old), male fosTRAP2×Ai14 mice were bred in-house. Generation of the fosTRAP2 and FosTRAP lines were previously described (Guenthner, et al.). fosTRAP2 mice were crossed with Ai14 mice to obtain the mice used in this study. Mice were single-housed on a reverse light-dark cycle and given unlimited access to standard mouse chow and water. Animals were given a week to habituate to single housing, after which they were given free access to 2 bottles containing water and 20% ethanol for 24-hour periods beginning at the start of their dark cycle, 5 days per week (Monday-Friday) for 4 weeks (ethanol exposure). Amount of water and ethanol consumed (by volume and weight) were measured for each mouse across the final 5 days of the ethanol exposure period, and ethanol preference was counterbalanced across treatment group by the mean ethanol preference by weight (corrected for body weight) during this period.
Following 4 weeks of ethanol exposure, animals were administered one of 3 treatments via a single intraperitoneal injection 10 minutes prior to onset of the dark cycle/day one in a five-day cycle of alcohol exposure: saline, LSD 50 ug/kg, or BOL-148 3.0 mg/kg. Following administration of treatment, animals were placed back into their home cages with free access to standard mouse chow and water. After 10 minutes, 12 animals from each treatment group were given free access to 2 bottles containing water and 20% ethanol for 24 hours daily for 4 weeks (alcohol preference). Amount of water and ethanol consumed (by volume and weight) were measured daily at the end of the light cycle. Positions of bottles containing water and 20% ethanol were alternated daily to prevent the formation of place preference. An additional 2-4 animals per treatment group were given free access to standard mouse chow and water, and ambulatory activity as well as head-twitching behavior (thought to correspond with hallucinogenicity of substances in mice), was measured for 35 minutes following treatment.
For all hypotheses, data were analyzed using Mixed Models for Repeated Measures (MMRM), including fixed effects of Treatment (Saline, BOL, LSD), Week (1-4), Day (1-5), and two- and three-way interactions between Treatment and Day/Week. Repeated Effects were represented as a nested within-subjects variable (days within weeks). Data were analyzed separately for each of 3 dependent variables: ethanol consumption (mg and ml consumed), ethanol preference (ethanol consumption/total fluid consumption), and total fluid consumption (mg and ml consumed). For hypothesis 1a, a priori between-group comparisons are performed to contrast ethanol consumption, ethanol preference, and total fluid consumption between the vehicle- and LSD-treated groups. For hypothesis 1b, a priori between-group comparisons are performed to contrast ethanol consumption, ethanol preference, and total fluid consumption between the LSD-treated group at follow-up weeks 1 versus 3. For hypothesis 2a, a priori between-group comparisons are performed to contrast ethanol consumption, ethanol preference, and total fluid consumption between the vehicle- and BOL-148-treated groups. For hypothesis 2b, a priori between-group comparisons are performed to contrast ethanol consumption, ethanol preference, and total fluid consumption between the LSD- and BOL-148-treated groups. For each hypothesis, with 3 groups of 5-10 animals (total n=25) and 20 days of repeated measurements (autocorrelation=0.5), there is power of 0.8 to detect moderately-sized effects of approximately d=0.3 at alpha=0.05.

5-HT receptors = conditions: cited from earlier work
5HT2A receptors = 5HT2A receptors (Homo sapiens, UniProt P28223); conditions: cited from earlier work
5HT2A receptors, sequence (P28223 whole entry): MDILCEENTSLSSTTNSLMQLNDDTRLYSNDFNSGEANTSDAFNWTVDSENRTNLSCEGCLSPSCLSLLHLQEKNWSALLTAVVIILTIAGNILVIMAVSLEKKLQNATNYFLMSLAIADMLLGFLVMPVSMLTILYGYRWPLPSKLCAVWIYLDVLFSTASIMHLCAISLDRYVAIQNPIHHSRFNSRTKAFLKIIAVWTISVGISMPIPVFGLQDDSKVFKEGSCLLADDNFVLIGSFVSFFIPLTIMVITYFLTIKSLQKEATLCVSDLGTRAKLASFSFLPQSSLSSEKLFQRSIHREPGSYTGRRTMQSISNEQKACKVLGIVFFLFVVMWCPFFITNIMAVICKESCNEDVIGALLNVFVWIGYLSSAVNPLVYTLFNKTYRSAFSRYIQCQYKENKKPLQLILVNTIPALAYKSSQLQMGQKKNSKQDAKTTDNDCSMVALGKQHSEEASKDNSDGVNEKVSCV

human participants = conditions: 0.03 mg/kg delivered daily; cited from earlier work
rats [3] = conditions: cited from earlier work; remark: listed apart in the source
C57BL/6J mice = conditions: cited from earlier work
dopamine receptors = conditions: cited from earlier work
5HT1A receptors = target: T1, 5HT1A receptors (Homo sapiens, UniProt P08908); conditions: cited from earlier work
T1 sequence (P08908 1-422): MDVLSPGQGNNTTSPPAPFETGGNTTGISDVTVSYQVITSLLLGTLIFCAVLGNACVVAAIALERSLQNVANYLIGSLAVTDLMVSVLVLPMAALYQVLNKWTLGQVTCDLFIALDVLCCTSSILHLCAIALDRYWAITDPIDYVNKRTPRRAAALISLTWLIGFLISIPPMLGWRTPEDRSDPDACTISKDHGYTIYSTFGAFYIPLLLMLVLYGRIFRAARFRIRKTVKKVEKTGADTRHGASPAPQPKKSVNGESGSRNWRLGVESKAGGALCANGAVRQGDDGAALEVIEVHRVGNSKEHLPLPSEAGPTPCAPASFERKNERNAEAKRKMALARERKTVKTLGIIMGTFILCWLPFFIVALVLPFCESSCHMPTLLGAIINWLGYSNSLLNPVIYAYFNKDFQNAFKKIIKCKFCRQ

[4] = system: participants with alcohol dependence; conditions: single high-dose LSD session vs control, six trials; cited from earlier work
rodents = conditions: cited from earlier work
[5] = system: participants with alcoholism; conditions: DPT treatment vs conventional treatment; cited from earlier work
[6] = system: participants with alcoholism; conditions: 1 to 6 DPT sessions; cited from earlier work
[7] = LSD 50 ug/kg or BOL-148 3.0 mg/kg IP

## CCN(CC)C(=O)[C@@H]1C=C2c3cccc4[nH]c(Br)c(c34)C[C@H]2N(C)C1 [BOL-148, 2-bromo-lysergic acid diethylamide]
[1]
  psychedelic activity: inactive as a psychedelic
Rats [2]
  blockade of the effects of LSD by pre-treatment: will not block the effects of LSD
humans
  blockade of the effects of LSD in humans: could block the effects of LSD
Male fosTRAP2×Ai14 mice; [7]
  ethanol preference, within-group mean difference week 1 vs. week 3: 0.119
Male fosTRAP2×Ai14 mice
  ethanol consumption, mean difference Saline vs. treatment: 0.004 mg total ethanol consumed/mg of body weight
  effect of treatment on alcohol preference (summary): modest effect
  additive effect of a second dose on alcohol preference: an additive effect of BOL-148 was found
5-HT receptors
  effect on 5-HT receptors: neutral antagonist
5HT2A receptors
  activity at 5HT2A receptors: 5HT2A antagonist activity
Human participants
  effect on cluster headaches: effective at reducing cluster headaches

## COc1cc(CC(C)N)c(OC)cc1I (stereo not shown) [DOI, 2,5-dimethoxy-4-iodoamphetamine]
Rats [3]
  effect on alcohol preference: reduce alcohol preference

## CCN(CC)C(=O)[C@@H]1C=C2c3cccc4[nH]cc(c34)C[C@H]2N(C)C1 [LSD, lysergic acid diethylamide]
C57BL/6J mice; acute administration of 50 ug/kg LSD, C57BL/6J mice
  effect on alcohol consumption and alcohol preference: robust and lasting reduction
C57BL/6J mice; mice, 25 μg/kg LSD
  duration of observation over which reduced ethanol consumption was shown: 46 days
  group mean reduction of ethanol consumption relative to controls: 17.9%
Dopamine receptors
  activity at dopamine receptors: partial agonist
Male fosTRAP2×Ai14 mice; LSD 50 ug/kg versus BOL-148 3.0 mg/kg treated groups
  ethanol preference, mean difference LSD vs. BOL-148: 0.081
Male fosTRAP2×Ai14 mice; [7]
  ethanol preference, within-group mean difference week 1 vs. week 3: 0.014
Male fosTRAP2×Ai14 mice
  ethanol consumption, mean difference Saline vs. treatment: 0.050 mg total ethanol consumed/mg of body weight
  effect of treatment on alcohol preference (summary): becomes apparent immediately, and remains stable for weeks
  additive effect of a second dose on alcohol preference: An additive effect was not found
Male fosTRAP2×Ai14 mice; planned contrast across follow-up, LSD 50 ug/kg or BOL-148 3.0 mg/kg IP
  ethanol preference (ethanol consumption/total fluid consumption), mean difference Saline vs. treatment: 0.168
Male fosTRAP2×Ai14 mice; post-hoc, Week 1 (injection week), LSD 50 ug/kg IP
  ethanol consumption, mean difference Saline vs. LSD, Week 1: 0.062 mg total ethanol consumed/mg of body weight
Male fosTRAP2×Ai14 mice; post-hoc, Week 2 (non-injection week), LSD 50 ug/kg IP
  ethanol consumption, mean difference Saline vs. LSD, Week 2: 0.077 mg total ethanol consumed/mg of body weight
Male fosTRAP2×Ai14 mice; post-hoc, Week 3 (injection week), LSD 50 ug/kg IP
  ethanol consumption, mean difference Saline vs. LSD, Week 3: −0.029 mg total ethanol consumed/mg of body weight
Male fosTRAP2×Ai14 mice; post-hoc, Week 4 (non-injection week), LSD 50 ug/kg IP
  ethanol consumption, mean difference Saline vs. LSD, Week 4: 0.089 mg total ethanol consumed/mg of body weight
5HT1A receptors
  activity at 5HT1A receptors: potent agonist
5HT2A receptors
  activity at 5HT2A receptors: partial agonist
[4]
  odds of improvement at first post-treatment follow-up (OR): 1.96
rodents
  range of doses that reliably produce accurate responding in a discrimination task or head twitch response: 0.17 to 0.2 mg/kg

## CCCN(CCC)CCc1c[nH]c2ccccc12 [DPT, Dipropyltryptamine]
[5]
  clinical outcomes at 6 month follow-up vs other groups: no significant differences
[6]
  clinical outcomes including abstinence at 6 months: highly significant improvement
